The values below come from patent US5942502A, “Method of treating diseases resulting from calcium metabolism disorders” (priority 1998, dated 1999).

“Also recorded” adds a separate entry of the source. Like-named read-outs stand apart in the source and are kept apart here.

For data set [1] the following is noted: cited from earlier work.
The nature of data set [2]: Acute toxicity (LD50), single dose. The class given is in vivo, rat. To be noted: rat, in vivo; single (acute) dose, male rats, at 14 days. From the text: LD50 data represent the dose administered resulting in the death of 50% of the test group.
The next data set relates to Ovariectomized rats. Briefly: Ovariectomized rat model: serum Ca and P, femur dry weight, ash weight and breaking load. The class given is in vivo, Female Fisher rats. To be noted: for Serum Pi / Breaking load (femur) / Serum Ca / Ash weight (femur) / Dry weight (femur): three times a week for 23 weeks, Mean ± SD; for Serum Pi: OVX 2.6 ± 0.4; for Breaking load (femur): OVX 9.0 ± 0.9; for Serum Ca: OVX 9.7 ± 0.2; for Ash weight (femur): OVX 285 ± 19; for Dry weight (femur): OVX 431 ± 26. From the text:
Female Fisher rats, 9-10 months old, were ovariectomized and were fed a vitamin D-deficient diet containing 0.45% calcium and 0.3% phosphorus. The rats were given 15IU of vitamin D3 orally once a week throughout this experiment. Four weeks after the surgery, the rats were orally adminstered three times a week for 23 weeks with ST-630 (30, 100 or 300 pmole/kg) or 1α-hydroxyvitamin D3 (100 or 300 pmole/kg).

For another data set, the system named is female beagle dogs. Nature of the data set: Chronic dosing toxicity, three months oral. To be noted: 0.3 mg/kg orally each day for three months. It is filed as in vivo, dog (beagle). As for the experimental part:
With respect to chronic dosing, a group of six female beagle dogs were given 0.3 mg/kg of either ST-630 or 1α-hydroxyvitamin D3 orally each day for three months.

For data set [3] the following is noted: cited from earlier work. The source holds these as a separate data set.
For data set [4] the following is noted: in vivo; cited from earlier work.
The conditions of data set [5]: compared with 1,25-(OH)2 D3; cited from earlier work.
The test system of data set [6] is postmenopausal osteoporosis. Conditions: average dose 0.8 μg per day, cited from earlier work.
The test system of data set [7] is postmenopausal osteoporosis. Conditions: cited from earlier work.
Setting [8] is: dose response over the doses tested.
[9] abbreviates: especially with conventional calcium supplement treatment.

As for `C=C1/C(=C\C=C2/CCC[C@]3(C)[C@@H]([C@H](C)CCCC(C)C)CC[C@@H]23)C[C@@H](O)C[C@@H]1O` [1α-hydroxyvitamin D3, reference compound], the “safe dose used for human administration” value in [1] (humans) was 1 µg/day. For the same molecule, the LD50 (as a rule, the dose expected to kill half of the subjects tested) at 336 h in data set [2] was determined as 0.2 mg/kg. Also, in the data set on Ovariectomized rats (100 pmole/kg p.o.), the “Serum Pi” value came out at 3.8 ± 0.3 mg/100 ml, the “Breaking load (femur)” value was 9.3 ± 0.6 kg, the “Serum Ca” value was 9.9 ± 0.2 mg/100 ml and the “Ash weight (femur)” value is given as 303 ± 29 mg. The “Dry weight (femur)” value with Ovariectomized rats (100 pmole/kg p.o.) is 454 ± 42 mg. In addition, in the data set on Ovariectomized rats (300 pmole/kg p.o.), the “Serum Pi” value is recorded as 4.3 ± 0.4 mg/100 ml, the “Breaking load (femur)” value was found to be 9.5 ± 1.1 kg, the “Serum Ca” value came to 10.3 ± 0.3 mg/100 ml and the “Ash weight (femur)” value is 308 ± 33 mg. Besides, in the data set on Ovariectomized rats (300 pmole/kg p.o.), the “Dry weight (femur)” value was determined as 461 ± 47 mg. Besides, in the data set with Ovariectomized rats (setting [8]), the serum calcium level result is given as “increased dose-dependently” and the serum phosphorus level result is “increased dose-dependently”. Besides, the deaths entry in the data set with female beagle dogs is on record as “two of six dogs”.

`C=C1/C(=C\C=C2/CCC[C@]3(C)[C@@H]([C@H](C)/C=C/[C@H](C)C(C)(C)O)CC[C@@H]23)C[C@@H](O)C[C@@H]1O` [1α,25-dihydroxyvitamin D2]: in data set [3] (setting [9]), the hypercalcemia result is “causing hypercalcemia”.

For `C=C1/C(=C\C=C2/CCC[C@]3(C)[C@@H]([C@H](C)/C=C/[C@@H](C)C(C)(C)O)CC[C@@H]23)C[C@@H](O)C[C@@H]1O` [1α,25-dihydroxy-24-epi-vitamin D2], in data set [4], the intestinal calcium transport result was “increasing intestinal calcium transport”, the “mineralization of new bone” value is recorded as “stimulating the mineralization of new bone” and the “mobilizing calcium from bone” value is on record as “minimal effectiveness”.

In the case of `C=C1CC[C@H](O)C/C1=C/C=C1\CCC[C@]2(C)[C@@H]([C@H](C)CCCC(C)(C)O)CC[C@@H]12` [hydrate of 25-hydroxyvitamin D3, 25-hydroxyvitamin D3], the hypercalcemia entry in data set [3] (setting [9]) is listed as “danger of hypercalcemia”.

On to `C=C1/C(=C\C=C2/CCC[C@]3(C)[C@@H]([C@H](C)/C=C/[C@H](C)C(C)C)CC[C@@H]23)C[C@@H](O)C[C@@H]1O` [1α-hydroxyvitamin D2], for which, in data set [3] (setting [9]), the hypercalcemia entry is given as “causing hypercalcemia”.

Take `C=C1/C(=C\C=C2/CCC[C@]3(C)[C@@H]([C@H](C)CCC(F)(F)C(C)(C)O)CC[C@@H]23)C[C@@H](O)C[C@@H]1O` [24,24-difluoro-1,25-(OH)2 D3]: the “activity relative to 1,25-(OH)2 D3” value in data set [5] is “at least as great if not greater activity”.

In the case of `C=C1/C(=C\C=C2/CCC[C@]3(C)[C@@H]([C@H](C)CCC(O)C(C)(C)O)CC[C@@H]23)C[C@@H](O)CC1O` (stereo partly drawn) [1,24,25-trihydroxyvitamin D3], the hypercalcemia entry in [3] (in vivo) is on record as “causing hypercalcemia”.

As for `C=C1/C(=C\C=C2/CCC[C@]3(C)[C@@H]([C@H](C)CCCC(C)(C)O)CC[C@@H]23)C[C@@H](O)C[C@@H]1O` [calcitriol, 1α,25-dihydroxyvitamin D3], in data set [6], the Hypercalciuria incidence entry was “all subjects”, the bone formation entry was “no effect on bone formation”, the bone resorption entry was “reducing bone resorption” and the calcium absorption entry is given as “increasing calcium absorption”. In addition, the hypercalcemia incidence in [6] was 11 of 12 subjects. Further, the bone loss result in data set [6] (women with postmenopausal osteoporosis) was “reduced bone loss”. Further, the “dosage "window" or tolerance between effectiveness and toxicity” value in data set [1] (in view of Oloia et al and Tilyard et al) is “relatively small”. For the same molecule, the hypercalcemia result in data set [3] (setting [9]) is given as “causing hypercalcemia”. For the same molecule, the hypercalcemia result in data set [7] (0.5 μg per day (0.25 μg orally twice a day), average dietary calcium intake 800 mg) is listed as “not accompanied by hypercalcemia of any severity; also recorded: limited potential to induce hypercalcemia”. Moreover, in [7] (0.5 μg per day for three years, versus supplemental calcium 1 gram daily), the “rate of new vertebral fractures” value is “significant reduction”.
